Source: patent US7632814B2, “HYD1 peptides as anti-cancer agents” (University of South Florida, priority 2006, dated 2009)
Entries after “also recorded” stand apart in the source; their conditions may differ. Where no end group is shown, it is not given here. [ ]: non-standard residue; d: D form.

System: 8226 MM
Assay: SCID-Hu in vivo model, tumor burden by circulating lambda levels
Parameters: species or system SCID mice
Description: 8226 cells (50,000 cells per mice) were engrafted into implanted human bone for 28 days. Following tumor engraftment, mice were treated with either 2 mg/Kg HYD1 or HYD1S (I.P. daily). Appropriate mice were treated with 1.5 mg/kg melphalan (mel) on day 29 and day […] (I.P. injections). Tumor burden was measured by lambda levels on day 28 and day 35 (n=3 mice per group).
Tumor burden was measured by circulating lambda levels. On day 28 (before drug treatment) measurements were recorded for each individual mouse and subsequent values obtained weekly are represented as a ratio of day 28 (day X/day 28). N=4 mice per group. HYD1 was administered I.P. at 2 mg/kg daily for 14 days (starting day 28). Melphalan was administered I.P. at 1.5 mg/kg on day 29 and 32.
SCID-Hu model. […] At 28 days, baseline tumor burden was quantified in the sera using either a lambda (8226) or kappa (H929) ELISA kit per manufacture instructions (Bethyl, Montgomery, Tex.) and mice were randomized into treatment groups. […] Tumor burden was assessed weekly by measuring kappa or lambda levels in the sera.
The SCID-Hu model consists of implanting human fetal bone into the mammary mouse fat pad of SCID mice. […] Human paraprotein can be measured in the mouse sera and levels represent a good marker for evaluating tumor burden and response to chemotherapy. […]

## kikmviswkg ([dK][dI][dK][dM][dV][dI][dS][dW][dK]G) [HYD1]
8226, 2 mg/kg HYD1 I.P. daily with 1.5 mg/kg melphalan I.P.
  tumor burden (lambda levels), combination with melphalan: greatest reduction in tumor burden; also recorded: enhances melphalan induced cell death
8226, 2 mg/kg I.P. daily for 14 days starting day 28
  tumor burden (circulating lambda levels, day X/day 28), single agent: antitumor activity was detected; also recorded: reduces 8226 MM growth in vivo
